Data set [1] concerns ALuc16. The experiment in a line: Metal cation-driven optical intensities of ALuc16 (purified enzyme). The note with it: metal cation-free Tris-HCl buffer (pH 8.2, 0.05 M), nCTZ. It is filed as biochemical. As to the method:
The metal cation-driven optical properties were estimated with ALuc16 (FIG. 6). A metal cation-free sample of ALuc16 was prepared beforehand as follows: we first generated a DNA construct of ALuc16 carrying a Strep-II tag at the C-terminus via PCR. The construct was then cloned into a pOPTHM vector (providing a cleavable N-terminal His6-MBP tag), and expressed in the bacterial strain Shuffle T7 Express (New England Biolabs) with 0.3 mM IPTG induction. […] The lysate was centrifuged at 18,000 rpm for 40 minutes, and then the supernatant was passed over a 5 mL HisTrap HP column (GE Healthcare). […] The eluted sample was dialyzed to a metal-cation-free Tris-HCl buffer (0.05 M, pH 8.2) at 4° C. for 24 hours, and finally adjusted to a concentration of 1 mg/ml by dilution. […] Meanwhile, the corresponding substrate solution carrying nCTZ (Promega) was diluted 100-fold with the cation-free Tris-HCl buffer (Solution B). 50 μL of Solution B was simultaneously injected into Solution A in the 96-well plate with a multichannel micropipette (Gilson). The microplate was immediately moved to an image analyzer (LAS-4000, FujiFilm) equipped with a cooled charge-coupled device (CCD) camera, and the optical intensities were simultaneously estimated in a precision mode. The measurements were conducted in triplicate (n=3). The optical images were analyzed with Multi Gauge V3.2 (FujiFilm). […] The experiment was conducted by the same method as that of FIG. 6. In the inset, the optical image taken with LAS-4000 (FujiFilm) is shown.

For the next data set, the target named is OLuc (Oplophorus gracilirostris, UniProt Q9GV45). The note with it: cited from earlier work.
The target of the next data set is TPv2.4 (Homo sapiens, UniProt P42345). The note with it: for bioluminescence intensity with TPv2.4: lysate of rapamycin-stimulated COS-7 cells, substrate 0.1 μg/μL; for luminescence intensity sustainability: compared with native coelenterazine.
For a further data set, the system named is Fridericia luciferase. To be noted: cited from earlier work.
For data set [2], the system named is ALuc16. The experiment in a line: Cation-driven long-term stability of optical intensities of ALuc16. It is filed as biochemical. The note with it: 60 minutes after substrate injection. As to the method: The long-term stability of optical intensities was estimated by the same method as that of FIG. 6(A) (FIG. 8(A)). The microplate was placed in the chamber of LAS-4000, and the optical intensities were monitored every 5 minutes, after substrate injection, for a duration of 60 minutes.

A short description of data set [3]: Luminescence activity of novel artificial bioluminescent enzymes (COS-7 cell lysate). It is filed as biochemical, African green monkey. To be noted: COS-7 lysate, native coelenterazine. On the procedure:
African green monkey kidney-derived COS-7 cells were cultured using a 96-well microplate. The COS-7 cells were grown until occupying 90% of the bottom-surface area of the culture plate, and, as shown in FIG. 19 and FIG. 20, were each transiently transfected with a pcDNA 3.1(+) vector (Invitrogen) encoding each luminescent enzyme with a lipofection reagent (TransIT-LT1, Mirus). After that, the cells were further cultured for about 1 day. After the culture, cell lysates were prepared using a cell lysis agent (Lysis buffer, Promega), and 5 μL each of the cell lysates was taken from each well and transferred to a 96-well microplate for measurement. An assay buffer (50 μL) containing native coelenterazine was simultaneously added to each well using a multichannel pipette. Immediately after the addition of the assay buffer, the microplate was moved into the black box of an image analyzer (LAS-4000, FujiFilm), and luminescence images were measured with a CCD camera (FIG. 19 and FIG. 20).

Data set [4] is described as follows: Proton-dependent optical intensities and optical stability of ALucs (COS-7 cell lysate). It is filed as biochemical, African green monkey. To be noted: for elevation of optical intensities at pH 7 as compared to pH 6: COS-7 lysate, nCTZ; for intensities as share of the initial intensities 20 minutes after substrate injection: pH 9, coelenterazine analog. As to the method:
The proton-driven optical intensities of ALucs were calculated to help elucidate the proton-bioluminescence relationship (FIG. 4). […] The cells were cultured and lysed by the same method as that of FIG. 2(B). Then, 10 μL of the lysates in the plate were simultaneously mixed with 40 µL of the substrate solution, which was prepared by mixing a native coelenterazine (nCTZ) stock (FIG. 4(B)) with an aliquot of the universal buffer with the pH ranging from 4 to 9 (final concentration of the substrate: 0.1 mg/ml). Immediately after the substrate injection, the plate was moved into an image analyzer (LAS-4000, FujiFilm), and relative optical intensities were integrated for 30 seconds. The time course of the intensities was estimated every 5 minutes for 20 minutes (FIG. 4(D)).

Chain of OLuc (Q9GV45 28-196): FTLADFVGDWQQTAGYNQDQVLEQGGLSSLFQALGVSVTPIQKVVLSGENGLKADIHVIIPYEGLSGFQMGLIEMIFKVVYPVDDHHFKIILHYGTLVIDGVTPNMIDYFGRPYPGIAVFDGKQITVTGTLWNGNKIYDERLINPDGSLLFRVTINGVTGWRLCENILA
Chain of TPv2.4 (P42345 with tags, fused parts or gaps): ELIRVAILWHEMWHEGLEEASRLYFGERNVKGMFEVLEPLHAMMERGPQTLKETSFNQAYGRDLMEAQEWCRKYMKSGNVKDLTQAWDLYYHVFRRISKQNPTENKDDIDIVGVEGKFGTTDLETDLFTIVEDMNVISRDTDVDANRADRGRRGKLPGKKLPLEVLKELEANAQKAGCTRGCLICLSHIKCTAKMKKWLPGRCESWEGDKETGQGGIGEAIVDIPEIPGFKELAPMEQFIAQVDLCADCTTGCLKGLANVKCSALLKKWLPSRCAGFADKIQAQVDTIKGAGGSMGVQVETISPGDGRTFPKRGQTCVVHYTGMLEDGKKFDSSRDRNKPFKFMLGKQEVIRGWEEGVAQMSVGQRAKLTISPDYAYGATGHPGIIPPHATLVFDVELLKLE
Description for TPv2.4: COS-7 cells were cultured in a 96-well plate, and the cells were transiently transfected with the pcDNA3.1(+) vector encoding TP2.4. After that, the cells were cultured for 2 days. After being stimulated with 10^−6 M rapamycin for 4 hours, the cells in each well were lysed with a cell lysis buffer (50 μl) for 20 minutes. After that, an aliquot of the lysate (10 μL) was transferred to a 96-well transparent-bottom plate. Separately, about 10 kinds of coelenterazine analogs (substrates, 25 μg) were dissolved in 25 μL of ethanol. The solution was further 10-fold diluted with an assay buffer (Promega) to prepare a solution having a final concentration of 0.1 μg/μL. The solution was named substrate solution. 50 μL of the substrate solution was simultaneously introduced into the lysate solution on the plate using a multipipette, and the plate was immediately moved into an image analyzer (LAS-4000, FujiFilm), followed by optical measurement every 5 minutes in a 30-second integration time mode.
The coelenterazine analogs subjected to the measurement in this research were 9 kinds from “Coelenterazine Sampler Kit” of Promokine, i.e., native coelenterazine (nCTZ), coelenterazine h (CTZ h), coelenterazine f (CTZ f), coelenterazine i (CTZ i), coelenterazine n (CTZ n), coelenterazine cp (CTZ-cp), coelenterazine hcp (CTZ hcp), coelenterazine fcp (CTZ fcp), and coelenterazine ip (CTZ ip).

Consider `N` [NH4^+], for which the “effect on optical intensities (activities) of ALuc16” value (“effect on optical intensities” below) with ALuc16 [1] is given as “little effect”.

`[Cl][Cu][Cl]` [Cu(II)]: in the data set with ALuc16 [1], the “effect on optical intensities” value was “suppress”. For the same molecule, on OLuc, the “effect on optical intensity of OLuc” value is on record as “inhibited the optical intensity”.

For coelenterazine h [CTZ h], at TPv2.4, the “bioluminescence intensity with TPv2.4” value is recorded as “strongest bioluminescence intensities”.

As for `Oc1ccc(-c2cn3c(O)c(Cc4ccccc4)nc3c(CC3CCCC3)n2)cc1` [CTZ hcp, coelenterazine hcp], the “bioluminescence intensity with TPv2.4” value on TPv2.4 was “weak luminescence intensities”.

Regarding coelenterazine f [CTZ f], the “bioluminescence intensity with TPv2.4” value on TPv2.4 is given as “strongest bioluminescence intensities”.

In the case of `[Li+]` [Li^+], the “effect on optical intensities” value in the data set with ALuc16 [1] was “little effect”.

As to `[Cl][Mn][Cl]` [Mn(II)], in the data set with ALuc16 [1], the “effect on optical intensities” value is given as “boosting effect with Mn(II) was not observed”. Also, in the data set on Fridericia luciferase, the “effect on activities of Fridericia luciferase” value is on record as “elevate”.

`[Na+]` [Na^+]: the “effect on optical intensities” value in the data set on ALuc16 [1] is given as “little effect”.

coelenterazine n [CTZ n]: the “initial luminescence intensity retained” value at TPv2.4 (20 minutes after substrate injection) is recorded as “about 60%”. Besides, on TPv2.4, the luminescence intensity sustainability entry is recorded as “longer than that of native coelenterazine”.

With `[Cl][Cd][Cl]` [Cd(II)], the “effect on optical intensity of OLuc” value at OLuc is reported as “inhibited the optical intensity”.

Turning to native coelenterazine [nCTZ], on TPv2.4, the “bioluminescence intensity with TPv2.4” value is reported as “strongest bioluminescence intensities”.

For `[Cl-].[Cl-].[Zn+2]` [Zn(II)], in the data set on ALuc16 [1], the “effect on optical intensities” value is listed as “suppress”. For the same molecule, at OLuc, the “effect on optical intensity of OLuc” value is reported as “inhibited the optical intensity”.

For `O=c1c(Cc2ccc(I)cc2)nc2c(Cc3ccccc3)[nH]c(-c3ccc(O)cc3)cn1-2` [CTZ i, coelenterazine i], at TPv2.4, the “luminescence half-life from substrate injection” value is “about 15 minutes” and the luminescence intensity sustainability result is listed as “longer than that of native coelenterazine”.

In the case of `Oc1ccc(Cc2nc3c(CC4CCCC4)nc(-c4ccc(O)cc4)cn3c2O)cc1` [CTZ cp, coelenterazine cp], the “bioluminescence intensity with TPv2.4” value on TPv2.4 is listed as “weak luminescence intensities”.

With `[Cl-].[Cl-].[Co+2]` [Co(II)], the “effect on optical intensities” value in the data set on ALuc16 [1] was “suppress”.

In the case of `[K+]` [K^+], the “effect on optical intensities” value with ALuc16 [1] is given as “little effect”.

Turning to `Oc1ccc(-c2cn3c(O)c(Cc4ccc(F)cc4)nc3c(CC3CCCC3)n2)cc1` [CTZ fcp, coelenterazine fcp], the “bioluminescence intensity with TPv2.4” value on TPv2.4 was “weak luminescence intensities”.

On to Cr(VI), for which the “elevation of ALuc16 activities / optical intensities” value in the data set on ALuc16 [1] is “about 2 times”.

With `[Cl-].[Cl-].[Mg+2]` [Mg(II)], the “effect on long-term stability of bioluminescence intensities” value with ALuc16 [2] is reported as “seldom influences the long-term stability”. For the same molecule, in the data set with Fridericia luciferase, the “effect on activities of Fridericia luciferase” value is “elevate”.

As for coelenterazine ip [CTZ ip], the “bioluminescence intensity with TPv2.4” value on TPv2.4 is reported as “weak luminescence intensities”.

B1: ALuc49: artificial luciferase, SEQ ID NO: 9 (protein)
chain: MMGIKVLFALVCLALVQAKPTEDEDEDDIVDVVGNFWAIGVDNDRDFTISADRGKLPGKKLPKEVLIEIEANAKKAGCTRGCLICLSKIKCTAKMKKWLPGRCHSYEGDKDTGQGGIGEPIVDAPEIPGFKDLTPMEQFIAQVDLCADCTTGCLKGLANVKCSALLKKWLPDRCASFADKIQKEVDYIKGLAGS
With B1, the “luminescence intensities as compared to conventional ALucs (e.g., ALuc16 and ALuc30)” value in data set [3] is on record as “even stronger luminescence intensities”.

B2: ALuc46: artificial luciferase, SEQ ID NO: 6 (protein)
chain: MMGIKVLFALVCLALVQAKPTEDEDEDDIVDVVGNFWAIGVDNDRDFTISADRGKLPGKKLPKEVLIEIEANAKKAGCTRGCLICLSKIKCTAKMKKWLPGRCHSYEGDKDTGQGGIGEPIVDAPEIPGFKDLTPMEQFIAQVDLCADCTTGCLKGLANVKCSALLKKWLPDRCASFADKIQSEVATIKGLAGS
For B2, in data set [3], the “luminescence intensities as compared to conventional ALucs (e.g., ALuc16 and ALuc30)” value was “relatively low luminescence intensities”.

B3: ALuc47: artificial luciferase, SEQ ID NO: 7 (protein)
chain: MMGIKVLFALVCLALVQAKPTEDEDEDDIVDVVGNFWAIGVDNDRDFTISADRGKLPGKKLPKEVLIEIEANAKKAGCTRGCLICLSKIKCTAKMKKWLPGRCHSYEGDKDTGQGGIGEPIVDAPEIPGFKDLTPMEQFIAQVDLCADCTTGCLKGLANVKCSALLKKWLPDRCASFADKIQKEVGTIKGLLGS
For B3, the “luminescence intensities as compared to conventional ALucs (e.g., ALuc16 and ALuc30)” value in data set [3] is “relatively low luminescence intensities”.

B4: ALuc50: artificial luciferase, SEQ ID NO: 10 (protein)
chain: MMGIKVLFALVCLALVQAKPTEDEDEDDIVDVVGNFWAIGVDNDRDFTISADRGKLPGKKLPKEVLIEIEANAKKAGCTRGCLICLSKIKCTAKMKKWLPGRCHSYEGDKDTGQGGIGEPIVDAPEIPGFKDLTPMEQFIAQVDLCADCTTGCLKGLANVKCSALLKKWLPDRCASFADKIQKEVDFIKGLAGS
As for B4, the “luminescence intensities as compared to conventional ALucs (e.g., ALuc16 and ALuc30)” value in data set [3] is reported as “even stronger luminescence intensities”.

B5: ALuc41: artificial luciferase, SEQ ID NO: 2 (protein)
chain: MMGIKVLFALVCLALVQAKPTEDEDEDDIVDVVGNFWAIGVDNDRDFTISADRGKLPGKKLPKEVLIEIEANAKKAGCTRGCLICLSKIKCTAKMKKWLPGRCHSYEGDKDTGQGGIGEPIVDAPEIPGFKDLTPMEQFIAQVDLCADCTTGCLKGLANVKCSALLKKWLPDRCASFADKIQKEVDTIKGLAGS
Consider B5, for which the “luminescence intensities as compared to conventional ALucs (e.g., ALuc16 and ALuc30)” value in data set [3] is given as “relatively low luminescence intensities”.

B6: ALuc23: conventional artificial luciferase from the inventor's previous research, SEQ ID NO: 32 (protein)
chain: MMGIKVLFALICFALVQANPTENKDDIDIVGVEGKFGTTDLETDLFTIVEDMNVISRDTDVDANRADRGRRGKLPGKKLPLEVLKELEANAQKAGCTRGCLICLSHIKCTAKMKKWLPGRCESWEGDKETGQGGIGEAIVDIPEIPGFKELAPMEQFIAQVDLCADCTTGCLKGLANVKCSALLKKWLPSRCAGFADKIQAQVDTIKGAGGS
modifications: Synthetic Sequence - ALuc23
Turning to B6, in data set [4], the “elevation of optical intensities at pH 7 as compared to pH 6” value is on record as “about 5 fold” and the “intensities as share of the initial intensities 20 minutes after substrate injection” value stood at 41%.

B7: ALuc34: conventional artificial luciferase, SEQ ID NO: 35 (protein)
chain: MMGIKVLFALICFALVQANMMDYKDDDDKVGVEGKFGTTDLETDLFTIVEDMNVISRDTDVDANRADRGRRGKLPGKKLPLEVLKELEANAQKAGCTRGCLICLSHIKCTAKMKKWLPGRCESWEGDKETGQGGIGEAIVDIPEIPGFKELAPMEQFIAQVDLCADCTTGCLKGLANVKCSALLKKWLPSRCAGFADKIQAQVDTIKGAGGS
modifications: Synthetic Sequence - ALuc34
B7: in data set [4], the “elevation of optical intensities at pH 7 as compared to pH 6” value is “about 5 fold” and the “intensities as share of the initial intensities 20 minutes after substrate injection” value worked out at 60%.

Values taken from US10787650B2, “Artificial bioluminescent enzymes” (NATIONAL INSTITUTE OF ADVANCED INDUSTRIAL SCIENCE AND …, priority 2015, dated 2020).
